Laboratory results taken from ChEMBL document CHEMBL1671742, “Overexpression of the adeB gene in clinical isolates of tigecycline-nonsusceptible Acinetobacter baumannii without insertion mutations in adeRS” (Antimicrob Agents Chemother, 2010).
In brackets after ≈: the same amount, converted by molar mass.

Experiments:
Format in all cases: functional
Acinetobacter baumannii [1] = assay: Antibacterial activity against intI1-positive tigecycline-resistant Acinetobacter baumannii AB134 with PFGE subgroup A2 containing carbapenemase OXA-23 and OXA-51 by Etest
Acinetobacter baumannii [2] = assay: Antibacterial activity against intI1-positive tigecycline-intermediate Acinetobacter baumannii AB099 with PFGE subgroup H containing carbapenemase OXA-23 and OXA-51 by Etest
Acinetobacter baumannii [3] = assay: Antibacterial activity against intI1-positive tigecycline-resistant Acinetobacter baumannii AB097 with PFGE subgroup B1 containing carbapenemase OXA-23 and OXA-51 by Etest
Acinetobacter baumannii [4] = assay: Antibacterial activity against intI1-positive tigecycline-resistant Acinetobacter baumannii AB168 with PFGE subgroup A1 containing carbapenemase OXA-23 and OXA-51 by Etest
Acinetobacter baumannii [5] = assay: Antibacterial activity against intI1-positive tigecycline-resistant Acinetobacter baumannii AB118 with PFGE subgroup B2 containing carbapenemase OXA-23 and OXA-51 by Etest
Acinetobacter baumannii [6] = assay: Antibacterial activity against intI1-positive tigecycline-intermediate Acinetobacter baumannii AB166 with PFGE subgroup A3 containing carbapenemase OXA-51 by Etest
Acinetobacter baumannii [7] = assay: Antibacterial activity against intI1-positive tigecycline-susceptible Acinetobacter baumannii AB110 with PFGE subgroup C containing carbapenemase OXA-51 by Etest
Acinetobacter baumannii [8] = assay: Antibacterial activity against intI1-positive tigecycline-resistant Acinetobacter baumannii AB125 with PFGE subgroup A1 containing carbapenemase OXA-23 and OXA-51 by Etest
Acinetobacter baumannii [9] = assay: Antibacterial activity against intI1-negative tigecycline-intermediate Acinetobacter baumannii AB098 with PFGE subgroup F containing carbapenemase OXA-23 and OXA-51 by Etest
Acinetobacter baumannii [10] = assay: Antibacterial activity against intI1-positive tigecycline-susceptible Acinetobacter baumannii AB095 with PFGE subgroup E containing carbapenemase OXA-23 and OXA-51 by Etest
Acinetobacter baumannii [11] = assay: Antibacterial activity against intI1-positive tigecycline-susceptible Acinetobacter baumannii AB018 with PFGE subgroup G containing carbapenemase OXA-58 and OXA-51 by Etest
Acinetobacter baumannii [12] = assay: Antibacterial activity against intI1-positive tigecycline-susceptible Acinetobacter baumannii AB039 with PFGE subgroup B1 containing carbapenemase OXA-23 and OXA-51 by Etest
Acinetobacter baumannii [13] = assay: Antibacterial activity against intI1-positive tigecycline-resistant Acinetobacter baumannii AB096 with PFGE subgroup B1 containing carbapenemase OXA-23 and OXA-51 by Etest
Acinetobacter baumannii [14] = assay: Antibacterial activity against intI1-positive tigecycline-resistant Acinetobacter baumannii AB113 with PFGE subgroup B1 containing carbapenemase OXA-23 and OXA-51 by Etest
Acinetobacter baumannii [15] = assay: Antibacterial activity against intI1-positive tigecycline-resistant Acinetobacter baumannii AB173 with PFGE subgroup B1 containing carbapenemase OXA-23 and OXA-51 by Etest
Acinetobacter baumannii [16] = assay: Antibacterial activity against intI1-positive tigecycline-resistant Acinetobacter baumannii AB106 with PFGE subgroup B1 containing carbapenemase OXA-23 and OXA-51 by Etest
Acinetobacter baumannii [17] = assay: Antibacterial activity against intI1-positive tigecycline-intermediate Acinetobacter baumannii AB127 with PFGE subgroup I containing carbapenemase OXA-23 and OXA-51 by Etest

SMILES	MIC (Acinetobacter baumannii [1]) [µg/mL]	MIC (Acinetobacter baumannii [2]) [µg/mL]	MIC (Acinetobacter baumannii [3]) [µg/mL]	MIC (Acinetobacter baumannii [4]) [µg/mL]	MIC (Acinetobacter baumannii [5]) [µg/mL]	MIC (Acinetobacter baumannii [6]) [µg/mL]	MIC (Acinetobacter baumannii [7]) [µg/mL]	MIC (Acinetobacter baumannii [8]) [µg/mL]	MIC (Acinetobacter baumannii [9]) [µg/mL]	MIC (Acinetobacter baumannii [10]) [µg/mL]	MIC (Acinetobacter baumannii [11]) [µg/mL]	MIC (Acinetobacter baumannii [12]) [µg/mL]	MIC (Acinetobacter baumannii [13]) [µg/mL]	MIC (Acinetobacter baumannii [14]) [µg/mL]	MIC (Acinetobacter baumannii [15]) [µg/mL]	MIC (Acinetobacter baumannii [16]) [µg/mL]	MIC (Acinetobacter baumannii [17]) [µg/mL]
C[C@@H](O)[C@H]1C(=O)N2C(C(=O)O)=C(SCCNC=N)C[C@H]12 [IMIPENEM ANHYDROUS]	> 32	> 32	> 32	> 32	> 32	6 (≈ 20 µM)	1.5 (≈ 5.01 µM)	> 32	> 32	32 (≈ 107 µM)	8 (≈ 26.7 µM)	> 32	> 32	32 (≈ 107 µM)	32 (≈ 107 µM)	> 32	32 (≈ 107 µM)
C[C@H]1COc2c(N3CCN(C)CC3)c(F)cc3c(=O)c(C(=O)O)cn1c23.C[C@H]1COc2c(N3CCN(C)CC3)c(F)cc3c(=O)c(C(=O)O)cn1c23.O [LEVOFLOXACIN]	> 32	> 32	> 32	> 32	> 32	> 32	12	> 32	> 32	> 32	6		> 32	> 32	> 32	32	> 32
